Assay results from US10610522B2, “Methods for retreating irritable bowel syndrome (IBS)” (Salix Pharmaceuticals, Inc., priority 2014, dated 2020).
Values joined by “and” are separate entries in the source; they are usually repeats but may differ in a detail not shown here. Identical values can stand only once. Like-named read-outs stand apart in the source and are kept apart here.

Key:
[1] = test system: non-constipation IBS; test: Study 1 (TARGET 1): rifaximin 550 mg TID 14 days vs placebo in non-C IBS, 10-week follow-up; format: in vivo, human
From the text: A measure of efficacy is based on subjects' answers to the Weekly Subject Global Assessment (SGA) questions over the study duration in relation to their IBS symptoms.
Additionally subjects having a stool consistency score of <4 and at least a 1 point reduction in average daily IBS score were identified. […]
In TARGET 1 and 2, the primary endpoint was the proportion of patients who achieved adequate relief of IBS symptoms for at least 2 of 4 weeks during the month following 14 days of treatment. Adequate relief was defined as a response of “yes” to the following weekly Subject Global Assessment (SGA) question: “In regards to your IBS symptoms, compared to the way you felt before you started study medication, have you, in the past 7 days, had adequate relief of your IBS symptoms? [Yes/No]”
The key secondary endpoint was the proportion of patients who achieved adequate relief of IBS-related bloating for at least 2 of 4 weeks during the month following 2 weeks of treatment. Adequate relief of IBS-related bloating was defined as a response of “yes” to the following weekly (every 7 days) SGA question: “In regards to your IBS symptom of bloating, compared to the way you felt before you started study medication, have you, in the past 7 days, had adequate relief of your IBS symptom of bloating?
The trials examined a composite endpoint which defined responders by IBS-related abdominal pain and stool consistency measures. Patients were responders if they experienced a ≥30% decrease from baseline in abdominal pain for ≥2 weeks during the month following 2 weeks of treatment. […] Patients were monthly responders if they met criteria for BOTH abdominal pain and stool consistency ≥2 weeks per month. […] (See Table 60.)

[2] = test system: rabbit fetuses; test: Developmental toxicity in pregnant rabbits; format: in vivo
[3] = test system: IBS; details: cited from earlier work
[4] = test system: non-constipation IBS; test: Study 2 (TARGET 2): rifaximin 550 mg TID 14 days vs placebo in non-C IBS, 10-week follow-up; format: in vivo, human; details: at least 2 weeks during PEP
[5] = test system: d-IBS; test: IBS-QOL questionnaire in d-IBS patients, rifaximin 550 mg BID vs placebo; format: in vivo, human; details: Week 4
Experimental: Both groups received placebo for an additional 14 days after the initial 2-week treatment. Quality of life was assessed with the 34-item IBS-QOL questionnaire at baseline and 4 weeks after initiating treatment. Each item was scored on a 5-point scale (1=not at all; 2=slightly; 3=moderately; 4=quite a bit; and 5=extremely or a great deal). Results for composite and subscale scores were converted to a scale ranging from 0 to 100, with higher scores indicating better QOL.
Following a 2-week initial treatment period, both groups of patients received placebo for an additional 14 days. Quality of life was assessed via the 34-item IBS-QOL questionnaire at baseline and 4 weeks after initiating treatment. Each item was scored on a 5-point scale (1=not at all; 2=slightly; 3=moderately; 4=quite a bit; 5=extremely or a great deal); results for composite and subscale scores were converted to a scale ranging from 0 to 100, with higher scores indicating better QOL.

[6] = Crossover drug interaction study: oral cyclosporine 600 mg on pharmacokinetics of single-dose rifaximin 550 mg; format: in vivo, human
Experimental: Eligible subjects were healthy men and women 18 to 45 years of age. […] The 2 dosing periods were separated by 7 days. […] Subjects underwent a supervised fast overnight (for >8 hours) before dosing and for 4 hours after dosing, though water was permitted ad libitum. Subjects remained at the clinical research unit from Day 0 through the morning of Day 3, and from Day 7 through Day 10. A follow-up phone contact was made 3 (+1) days after discharge, which concluded their participation in the study. Study duration was up to 35 days, including a 21-day screening window, dosing on Day 1, a 7-day washout period, dosing on Day 8, discharge from the clinic on Day 10, and a 3 (+1) day follow-up period after discharge.

[7] = Study 1, at least 2 weeks during PEP
[8] = TARGET 1, month following two weeks of treatment, 550 mg TID, N = 309
[9] = Pimentel, et al., responders/retreated
[10] = Yang, et al, responders/retreated
[11] = rifaximin 1100 mg/d 14 d (n = 191)
[12] = both sexes, human, plasma, oral
[13] = both sexes, human, plasma, oral, 550 mg

SMILES: CO[C@H]1/C=C/O[C@@]2(C)Oc3c(C)c(O)c4c(O)c(c5c(nc6cc(C)ccn65)c4c3C2=O)NC(=O)/C(C)=C\C=C\[C@H](C)[C@H](O)[C@@H](C)[C@@H](O)[C@@H](C)[C@H](OC(C)=O)[C@@H]1C [Rifaximin, (2S,16Z,18E,20S,21S,22R,23R,24R,25S,26S,27S,28E)-5,6,21,23,25 Pentahydroxy-27-methoxy-2,4,11,16,20,22,24,26-octamethyl-2,7-(epoxypentadeca-(1,11,13)trienimino) benzofuro (4,5-e) pyrido(1,2-a) benzimidazole-1,15(2H)-dione,25-acetate]
- IBS symptom of bloating: adequate relief at least 2 out of 4 weeks during weeks 3 through 6 (weekly question) ([1]; Study 1 / TARGET 1): 40%
- Global IBS symptoms: adequate relief at least 2 out of 4 weeks during weeks 3 through 6 (weekly question) ([1]; Study 1 / TARGET 1, 550 mg TID 14 d): 41% and 31% vs 41%
- Responders: abdominal pain reduction of 1 point in weekly mean [1, 7]: 52%
- Responders: abdominal pain reduction of 1 point in weekly median [1, 7]: 63%
- Responders: abdominal pain reduction of 2 point in mean [1, 7]: 26%
- Responders: abdominal pain reduction of 2 point in median [1, 7]: 37%
- Responders: abdominal pain reduction of 3 point in mean [1, 7]: 6% vs 7%
- Responders: abdominal pain reduction of 3 point in median [1, 7]: 22%
- Responders: daily abdominal pain < 2 for at least 50% of days in a week [1, 7]: 40%
- Responders: overall reduction of mean weekly abdominal pain by >= 25% [1, 7]: 56%
- Responders: overall reduction of mean weekly abdominal pain by >= 50% [1, 7]: 36%
- Responders: overall reduction of mean weekly abdominal pain by >= 75% [1, 7]: 14%
- Responders: overall reduction of median weekly abdominal pain by >= 25% [1, 7]: 63%
- Responders: overall reduction of median weekly abdominal pain by >= 50% [1, 7]: 44%
- Responders: overall reduction of median weekly abdominal pain by >= 75% [1, 7]: 23%
- Abdominal Pain Responders: % [1, 8]: 51%
- Abdominal Pain Responders: n [1, 8]: 159
- Abdominal Pain and Stool Consistency Responders: % [1, 8]: 47%
- Abdominal Pain and Stool Consistency Responders: n [1, 8]: 144
- Adequate Relief of IBS Symptoms: % [1, 8]: 41%
- Adequate Relief of IBS Symptoms: n [1, 8]: 126
- Adequate Relief of IBS-Related Bloating: % [1, 8]: 40%
- Adequate Relief of IBS-Related Bloating: n [1, 8]: 122
- Stool Consistency Responders: % [1, 8]: 79%
- Stool Consistency Responders: n [1, 8]: 244
- Monthly responders for abdominal pain (≥30% decrease) and stool consistency (score <4) ([1]; TARGET 1, ≥2 weeks in month following 2 weeks of treatment): 47%
- Additional fetal malformations ([2]; fetal rabbits): cleft palate, lumbar scoliosis, brachygnathia, interventricular septal defect, and large atrium
- Fetal malformations ([2]; pregnant rabbits, dose levels that caused reduced body weight gain): eye malformations
- Severe TEAEs, SAEs, deaths (overall in the study): no severe TEAEs, SAEs, or deaths
- Subjects with a TEAE (rifaximin treatment period (7 subjects)): 25%
- Initial treatment response ([3]; Jolley (~1 yr), IBS-D patients, 1200 mg/day for 10 days): 56% (25/45)
- Re-treatment response (at least 1) ([3]; Jolley, IBS-D patients, 2400 mg/day for 10 days): (at least 1): 54% (13/24)
- Complete (>90%) relief ([3]; Jolley, IBS-D patients): 11% (5/45)
- Complete (>90%) relief upon re-treatment ([3]; Jolley, IBS-D patients): 13% (3/24)
- Initial treatment response ([3]; Pimentel, et al. (>6 yr), 169 Non-C IBS patients (Rome III), 400-550 mg TID for 14 days): 75% (111/148)
- Re-treatment response (at least 1) ([3]; Pimentel, et al., 1 to 6 re-treatments): (at least 1): >75%
- Duration of benefit ([3]; Pimentel, et al.): ~4 m
- Re-treatment response, First [3, 9]: 54/65
- Re-treatment response, Second [3, 9]: 38/40
- Re-treatment response, Third [3, 9]: Third: 17/18
- Initial treatment response ([3]; Weinstock (>6 yr), 99 Non-C IBS patients (Rome II), 1200-1650 mg/day for 10 days): 75% (74/99)
- Patients who did not require re-treatment ([3]; Weinstock): 27% did not require
- Patients who maintained response for mean 1.6 y ([3]; Weinstock): 41% maintained response
- Patients with only 1-2 retreatment in 2 y ([3]; Weinstock): 51% only 1-2 retreatment
- Initial treatment response ([3]; Yang, et al (1.25 yr), 84 IBS patients (Rome I), 1200 mg/day for 10 days): 69% (58/84)
- Re-treatment response (at least 1) ([3]; Yang, et al, 1200 mg/day for 10 days): (at least 1): 100%
- Re-treatment response, First [3, 10]: 16/16
- Re-treatment response, Second [3, 10]: 4/4
- Responders: abdominal pain reduction of 1 point in weekly median [4]: 62%
- Responders: abdominal pain reduction of 2 point in mean [4]: 25%
- Responders: overall reduction of median weekly abdominal pain by >= 75% [4]: 20%
- Improvement with rifaximin over placebo, IBS-QOL Body image ([5]; 1100 mg/d): 37.4%
- Improvement with rifaximin over placebo, IBS-QOL Dysphoria ([5]; 1100 mg/d): 25.3%
- Improvement with rifaximin over placebo, IBS-QOL Food avoidance ([5]; 1100 mg/d): 22.1%
- Improvement with rifaximin over placebo, IBS-QOL Health worry ([5]; 1100 mg/d): 30.6%
- Improvement with rifaximin over placebo, IBS-QOL Interference with activity ([5]; 1100 mg/d): 22.2%
- Improvement with rifaximin over placebo, IBS-QOL Overall score ([5]; 1100 mg/d): 28.7%
- Improvement with rifaximin over placebo, IBS-QOL Relationship ([5]; 1100 mg/d): 39.5%
- Improvement with rifaximin over placebo, IBS-QOL Sexual ([5]; 1100 mg/d): 24.9%
- Improvement with rifaximin over placebo, IBS-QOL Social reaction ([5]; 1100 mg/d): 31.6%
- Mean change from baseline in IBS-QOL, Body image [5, 11]: 20.1
- Mean change from baseline in IBS-QOL, Dysphoria [5, 11]: 24.8
- Mean change from baseline in IBS-QOL, Food avoidance [5, 11]: 25.0
- Mean change from baseline in IBS-QOL, Health worry [5, 11]: 16.0
- Mean change from baseline in IBS-QOL, Interference with activity [5, 11]: 22.2
- Mean change from baseline in IBS-QOL, Relationship [5, 11]: 14.9
- Mean change from baseline in IBS-QOL, Sexual [5, 11]: 13.6
- Mean change from baseline in IBS-QOL, Social reaction [5, 11]: 17.3
- Mean change from baseline in IBS-QOL, Overall score ([5]; rifaximin 1100 mg/d 14 d (n = 191), 0-100 scale): 20.4
- Tmax [6, 12]: 2 h
- half-life [6, 12]: 6.61 h
- AUC(0-inf) [6, 13]: 2.53 ng·h/mL
- Cmax [6, 13]: 0.48 ng/mL
- Tmax [6, 13]: 1 h
- half-life [6, 13]: 2.86 h
- Increase in rifaximin mean AUC on co-administration of cyclosporine ([6]; healthy subjects): 124 fold
- Increase in rifaximin mean Cmax on co-administration of cyclosporine ([6]; healthy subjects): 83 fold
